Laboratory results published in patent publication US11111251B2, “Positive allosteric modulators of the muscarinic acetylcholine receptor M1” (Vanderbilt University, priority 2016, dated 2021).

Molecular target: T1, human mAChR M1 (Homo sapiens, UniProt P11229)
T1 sequence (P11229 1-460): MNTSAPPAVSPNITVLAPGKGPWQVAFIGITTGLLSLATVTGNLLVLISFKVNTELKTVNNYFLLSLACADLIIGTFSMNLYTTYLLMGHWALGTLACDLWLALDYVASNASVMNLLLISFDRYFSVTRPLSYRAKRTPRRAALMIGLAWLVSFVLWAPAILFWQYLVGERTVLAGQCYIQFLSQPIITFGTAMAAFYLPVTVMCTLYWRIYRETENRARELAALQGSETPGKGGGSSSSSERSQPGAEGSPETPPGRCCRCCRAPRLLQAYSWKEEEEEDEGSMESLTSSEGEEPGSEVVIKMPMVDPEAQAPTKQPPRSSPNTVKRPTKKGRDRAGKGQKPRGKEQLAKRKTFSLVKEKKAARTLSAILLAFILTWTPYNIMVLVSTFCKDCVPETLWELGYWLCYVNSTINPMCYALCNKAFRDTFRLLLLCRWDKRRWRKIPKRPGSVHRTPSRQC
Test: mAChR M1 cell-based functional assay: calcium mobilization, positive allosteric modulator mode (increase in EC20 acetylcholine response)
Settings: Table 2, human M1; for EC50: read-out: Human M1 EC50; for Emax: read-out: Human M1 Emax (%)
How it was run: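 Calcium-flux assay in CHO-K1 cells stably expressing human M1, loaded with Fluo-4 AM (50 min, 37 °C) and read at 1 Hz. Compound (11-point, 1:3 series) was added at 4 s, EC20 acetylcholine at 144 s and EC80 at 230 s. PAM activity is the concentration-dependent rise in the EC20 response, fitted with a four-parameter logistic.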

**Q.** How did the EC50 turn out when `O=C(c1cc(Cc2ccc(-n3cccn3)cc2)c2sccc2n1)N1CCNCC1` [Compound 83, piperazin-1-yl-[7-[(4-pyrazol-1-ylphenyl)methyl]thieno[3,2-b]pyridin-5-yl]methanone] was run?
**A.** The EC50 was greater than 10000 nM.

**Q.** And the Emax?
**A.** The Emax was 52.9%.

**Q.** Which EC50 does the source give for `O=C(c1cc(Cc2ccc(-n3cccn3)cc2)c2sccc2n1)N1CCN(CCO)CC1` [Compound 84, [4-(2-hydroxyethyl)piperazin-1-yl]-[7-[(4-pyrazol-1-ylphenyl)methyl]thieno[3,2-b]pyridin-5-yl]methanone] here?
**A.** The EC50 was greater than 10000 nM.

**Q.** And the Emax?
**A.** The Emax was 24.4%.

**Q.** What does the source list for `Cc1ccc(C(F)c2cc(C(=O)N[C@@H]3CCCC[C@H]3O)nc3ccsc23)cn1` (stereo partly drawn) [Compound 85, 7-[fluoro-(6-methyl-3-pyridyl)methyl]-N-[(1R,2R)-2-hydroxycyclohexyl]thieno[3,2-b]pyridine-5-carboxamide]?
**A.** EC50: 80.1 nM; Emax: 87.9%

**Q.** How did the EC50 turn out when `CCOC(c1ccc(C)nc1)c1cc(C(=O)N[C@@H]2CCCC[C@H]2O)nc2ccsc12` (stereo partly drawn) [Compound 86, 7-[ethoxy-(6-methyl-3-pyridyl)methyl]-N-[(1R,2R)-2-hydroxycyclohexyl]thieno[3,2-b]pyridine-5-carboxamide] was run?
**A.** Its EC50 is 255 nM.

**Q.** And the Emax?
**A.** The Emax was 87.7%.

**Q.** For `O=C(N[C@H]1CC[C@@H]1O)c1cc(Cc2ccc(C(F)(F)F)nc2)c2sccc2n1` [Compound 87, N-[(1S,2S)-2-hydroxycyclobutyl]-7-[[6-(trifluoromethyl)-3-pyridyl]methyl]thieno[3,2-b]pyridine-5-carboxamide], which EC50 is on record?
**A.** The EC50 was 3130 nM.

**Q.** And the Emax?
**A.** Its Emax is 84.9%.

**Q.** For `O=C(N[C@@H]1CCC[C@H]1O)c1cc(Cc2ccc(C(F)(F)F)nc2)c2sccc2n1` [Compound 88, N-[(1R,2R)-2-hydroxycyclopentyl]-7-[[6-(trifluoromethyl)-3-pyridyl]methyl]thieno[3,2-b]pyridine-5-carboxamide], which EC50 is on record?
**A.** The EC50 was 503 nM.

**Q.** What about the Emax of the same molecule?
**A.** Its Emax is 90.5%.

**Q.** `O=C(NC1CCOCC1)c1cc(Cc2ccc(C(F)(F)F)nc2)c2sccc2n1` [Compound 89, N-tetrahydropyran-4-yl-7-[[6-(trifluoromethyl)-3-pyridyl]methyl]thieno[3,2-b]pyridine-5-carboxamide] was tested. Which EC50 did it give?
**A.** The EC50 was 1730 nM.

**Q.** And the Emax?
**A.** The Emax was 71.8%.

**Q.** `O=C(N[C@@H]1CCCC[C@H]1O)c1cc(Cc2ccc(C(F)(F)F)nc2)c2sccc2n1` [Compound 90, N-[(1R,2R)-2-hydroxycyclohexyl]-7-[[6-(trifluoromethyl)-3-pyridyl]methyl]thieno[3,2-b]pyridine-5-carboxamide] was tested. Which EC50 did it give?
**A.** Its EC50 is 154 nM.

**Q.** What about the Emax of the same molecule?
**A.** The Emax was 90.7%.

**Q.** For `O=C(N[C@@H]1CCOC[C@H]1O)c1cc(Cc2ccc(C(F)(F)F)nc2)c2sccc2n1` [Compound 91, N-[(3S,4R)-3-hydroxytetrahydropyran-4-yl]-7-[[6-(trifluoromethyl)-3-pyridyl]methyl]thieno[3,2-b]pyridine-5-carboxamide], which EC50 is on record?
**A.** The EC50 was 73.8 nM.

**Q.** And the Emax?
**A.** Its Emax is 87.9%.

**Q.** With `O=C(N[C@@H]1COCC[C@H]1O)c1cc(Cc2ccc(C(F)(F)F)nc2)c2sccc2n1` [Compound 92, N-[(3R,4R)-4-hydroxytetrahydropyran-3-yl]-7-[[6-(trifluoromethyl)-3-pyridyl]methyl]thieno[3,2-b]pyridine-5-carboxamide] as the molecule, how does the EC50 read?
**A.** Its EC50 is greater than 10000 nM.

**Q.** What about the Emax of the same molecule?
**A.** Its Emax is 66.8%.

**Q.** `CO[C@@H]1CCCC[C@H]1NC(=O)c1cc(Cc2ccc(C(F)(F)F)nc2)c2sccc2n1` [Compound 93, N-[(1R,2R)-2-methoxycyclohexyl]-7-[[6-(trifluoromethyl)-3-pyridyl]methyl]thieno[3,2-b]pyridine-5-carboxamide] was tested. Which EC50 did it give?
**A.** Its EC50 is 6720 nM.

**Q.** What about the Emax of the same molecule?
**A.** The Emax was 70.3%.

**Q.** How did the EC50 turn out when `O=C(N[C@@H]1CCCCC[C@H]1O)c1cc(Cc2ccc(C(F)(F)F)nc2)c2sccc2n1` [Compound 94] was run?
**A.** The EC50 was 1250 nM.

**Q.** And the Emax?
**A.** The Emax was 84.6%.

**Q.** How did the EC50 turn out when `O=C(NC12CC3CC(CC(O)(C3)C1)C2)c1cc(Cc2ccc(C(F)(F)F)nc2)c2sccc2n1` [Compound 95, N-(3-hydroxy-1-adamantyl)-7-[[6-(trifluoromethyl)-3-pyridyl]methyl]thieno[3,2-b]pyridine-5-carboxamide] was run?
**A.** Its EC50 is 3130 nM.

**Q.** And the Emax?
**A.** Its Emax is 34.2%.

**Q.** How did the EC50 turn out when `O=C(NC1C2CC3C[C@H]1CC(O)(C3)C2)c1cc(Cc2ccc(C(F)(F)F)nc2)c2sccc2n1` (stereo partly drawn) [Compound 96, N-[(1S)-5-hydroxy-2-adamantyl]-7-[[6-(trifluoromethyl)-3-pyridyl]methyl]thieno[3,2-b]pyridine-5-carboxamide] was run?
**A.** Its EC50 is greater than 10000 nM.

**Q.** And the Emax?
**A.** Its Emax is 43.6%.

**Q.** With `O=C(NC1CCCNC1=O)c1cc(Cc2ccc(C(F)(F)F)nc2)c2sccc2n1` (stereo not drawn) [Compound 97, N-(2-oxo-3-piperidyl)-7-[[6-(trifluoromethyl)-3-pyridyl]methyl]thieno[3,2-b]pyridine-5-carboxamide] as the molecule, how does the EC50 read?
**A.** The EC50 was greater than 10000 nM.

**Q.** What about the Emax of the same molecule?
**A.** Its Emax is 75.2%.

**Q.** `O=C(NC1CCCCNC1=O)c1cc(Cc2ccc(C(F)(F)F)nc2)c2sccc2n1` (stereo not drawn) [Compound 98, N-(2-oxoazepan-3-yl)-7-[[6-(trifluoromethyl)-3-pyridyl]methyl]thieno[3,2-b]pyridine-5-carboxamide] was tested. Which EC50 did it give?
**A.** The EC50 was 6000 nM.

**Q.** What about the Emax of the same molecule?
**A.** Its Emax is 66.6%.

**Q.** Which EC50 does the source give for `Cc1ccc(Cc2cc(C(=O)N[C@H]3CC[C@@H]3O)nc3c(C)csc23)cn1` [Compound 99] here?
**A.** Its EC50 is 7300 nM.

**Q.** And the Emax?
**A.** The Emax was 77.7%.

**Q.** How did the EC50 turn out when `Cc1ccc(Cc2cc(C(=O)N[C@@H]3CCC[C@H]3O)nc3c(C)csc23)cn1` [Compound 100] was run?
**A.** The EC50 was 654 nM.

**Q.** What about the Emax of the same molecule?
**A.** The Emax was 87.5%.

**Q.** `Cc1ccc(Cc2cc(C(=O)NC3CCCCC3)nc3c(C)csc23)cn1` [Compound 101, N-cyclohexyl-3-methyl-7-[(6-methyl-3-pyridyl)methyl]thieno[3,2-b]pyridine-5-carboxamide] was tested. Which EC50 did it give?
**A.** The EC50 was 4960 nM.

**Q.** What about the Emax of the same molecule?
**A.** The Emax was 75.7%.

**Q.** Which EC50 does the source give for `Cc1ccc(Cc2cc(C(=O)NC3CCOCC3)nc3c(C)csc23)cn1` [Compound 102, 3-methyl-7-[(6-methyl-3-pyridyl)methyl]-N-tetrahydropyran-4-yl-thieno[3,2-b]pyridine-5-carboxamide] here?
**A.** Its EC50 is 2700 nM.

**Q.** And the Emax?
**A.** Its Emax is 82.5%.

**Q.** How did the EC50 turn out when `Cc1ccc(Cc2cc(C(=O)N[C@@H]3CCCC[C@H]3O)nc3c(C)csc23)cn1` [Compound 103, N-[(1R,2R)-2-hydroxycyclohexyl]-3-methyl-7-[(6-methyl-3-pyridyl)methyl]thieno[3,2-b]pyridine-5-carboxamide] was run?
**A.** The EC50 was 233 nM.

**Q.** And the Emax?
**A.** The Emax was 89.3%.

**Q.** With `Cc1ccc(Cc2cc(C(=O)N[C@@H]3CCOC[C@H]3O)nc3c(C)csc23)cn1` [Compound 104] as the molecule, how does the EC50 read?
**A.** The EC50 was 164 nM.

**Q.** What about the Emax of the same molecule?
**A.** The Emax was 86.8%.

**Q.** For `Cc1ccc(Cc2cc(C(=O)N[C@@H]3COCC[C@H]3O)nc3c(C)csc23)cn1` [Compound 105], which EC50 is on record?
**A.** The EC50 was 825 nM.

**Q.** And the Emax?
**A.** The Emax was 87.7%.

**Q.** What does the source list for `CO[C@@H]1CCCC[C@H]1NC(=O)c1cc(Cc2ccc(C)nc2)c2scc(C)c2n1` [Compound 106, N-[(1R,2R)-2-methoxycyclohexyl]-3-methyl-7-[(6-methyl-3-pyridyl)methyl]thieno[3,2-b]pyridine-5-carboxamide]?
**A.** EC50: 2200 nM; Emax: 82.1%

**Q.** How did the EC50 turn out when `Cc1ccc(Cc2cc(C(=O)N[C@@H]3CCCCC[C@H]3O)nc3c(C)csc23)cn1` [Compound 107] was run?
**A.** The EC50 was 474 nM.

**Q.** And the Emax?
**A.** Its Emax is 88.5%.

**Q.** For `Cc1ccc(Cc2cc(C(=O)NC34CC5CC(CC(O)(C5)C3)C4)nc3c(C)csc23)cn1` [Compound 108, N-(3-hydroxy-1-adamantyl)-3-methyl-7-[(6-methyl-3-pyridyl)methyl]thieno[3,2-b]pyridine-5-carboxamide], which EC50 is on record?
**A.** Its EC50 is 5270 nM.

**Q.** What about the Emax of the same molecule?
**A.** Its Emax is 48.4%.

**Q.** Which results are given for `Cc1ccc(Cc2cc(C(=O)NC3C4CC5C[C@H]3CC(O)(C5)C4)nc3c(C)csc23)cn1` (stereo partly drawn) [Compound 109, N-[(1S)-5-hydroxy-2-adamantyl]-3-methyl-7-[(6-methyl-3-pyridyl)methyl]thieno[3,2-b]pyridine-5-carboxamide]?
**A.** EC50: 3250 nM; Emax: 54.6%

**Q.** `Cc1ccc(Cc2cc(C(=O)NC3CCCNC3=O)nc3c(C)csc23)cn1` (stereo not drawn) [Compound 110, 3-methyl-7-[(6-methyl-3-pyridyl)methyl]-N-(2-oxo-3-piperidyl)thieno[3,2-b]pyridine-5-carboxamide] was tested. Which EC50 did it give?
**A.** The EC50 was 5060 nM.

**Q.** What about the Emax of the same molecule?
**A.** Its Emax is 71%.

**Q.** Which EC50 does the source give for `Cc1ccc(Cc2cc(C(=O)NC3CCCCNC3=O)nc3c(C)csc23)cn1` (stereo not drawn) [Compound 111, 3-methyl-7-[(6-methyl-3-pyridyl)methyl]-N-(2-oxoazepan-3-yl)thieno[3,2-b]pyridine-5-carboxamide] here?
**A.** Its EC50 is 2400 nM.

**Q.** And the Emax?
**A.** The Emax was 72.5%.

**Q.** What does the source list for `Cc1ccc(Cc2cc(C(=O)NC3CCN(C)CC3)nc3c(C)csc23)cn1` [Compound 112, 3-methyl-N-(1-methyl-4-piperidyl)-7-[(6-methyl-3-pyridyl)methyl]thieno[3,2-b]pyridine-5-carboxamide]?
**A.** EC50: 5820 nM; Emax: 36.7%

**Q.** `Cc1csc2c(Cc3ccc(-n4cccn4)cc3)cc(C(=O)N[C@H]3CC[C@@H]3O)nc12` [Compound 113, N-[(1S,2S)-2-hydroxycyclobutyl]-3-methyl-7-[(4-pyrazol-1-ylphenyl)methyl]thieno[3,2-b]pyridine-5-carboxamide] was tested. Which EC50 did it give?
**A.** Its EC50 is 985 nM.

**Q.** What about the Emax of the same molecule?
**A.** Its Emax is 83.8%.

**Q.** Which results are given for `Cc1csc2c(Cc3ccc(-n4cccn4)cc3)cc(C(=O)N[C@@H]3CCC[C@H]3O)nc12` [Compound 114, N-[(1R,2R)-2-hydroxycyclopentyl]-3-methyl-7-[(4-pyrazol-1-ylphenyl)methyl]thieno[3,2-b]pyridine-5-carboxamide]?
**A.** EC50: 562 nM; Emax: 84.5%

**Q.** For `Cc1csc2c(Cc3ccc(-n4cccn4)cc3)cc(C(=O)NC3CCOCC3)nc12` [Compound 115, 3-methyl-7-[(4-pyrazol-1-ylphenyl)methyl]-N-tetrahydropyran-4-yl-thieno[3,2-b]pyridine-5-carboxamide], which EC50 is on record?
**A.** The EC50 was 1050 nM.

**Q.** What about the Emax of the same molecule?
**A.** Its Emax is 86.2%.
